US7208572B2, “Leptin-related peptides” (Albany Medical College, priority 1998, dated 2007)
Marks after values point to notes of the source that are not given here. Square brackets hold non-standard residues; d marks the D form. Ends that are not written are not given here. Peptide text beside a SMILES is read from it.

T1: OB-Ra (Mus musculus, UniProt P48356)
T1 construct: expressed in transfected cells; host or cells: COS-7
T1 sequence (P48356 22-894 isoform P48356-2 limits assumed): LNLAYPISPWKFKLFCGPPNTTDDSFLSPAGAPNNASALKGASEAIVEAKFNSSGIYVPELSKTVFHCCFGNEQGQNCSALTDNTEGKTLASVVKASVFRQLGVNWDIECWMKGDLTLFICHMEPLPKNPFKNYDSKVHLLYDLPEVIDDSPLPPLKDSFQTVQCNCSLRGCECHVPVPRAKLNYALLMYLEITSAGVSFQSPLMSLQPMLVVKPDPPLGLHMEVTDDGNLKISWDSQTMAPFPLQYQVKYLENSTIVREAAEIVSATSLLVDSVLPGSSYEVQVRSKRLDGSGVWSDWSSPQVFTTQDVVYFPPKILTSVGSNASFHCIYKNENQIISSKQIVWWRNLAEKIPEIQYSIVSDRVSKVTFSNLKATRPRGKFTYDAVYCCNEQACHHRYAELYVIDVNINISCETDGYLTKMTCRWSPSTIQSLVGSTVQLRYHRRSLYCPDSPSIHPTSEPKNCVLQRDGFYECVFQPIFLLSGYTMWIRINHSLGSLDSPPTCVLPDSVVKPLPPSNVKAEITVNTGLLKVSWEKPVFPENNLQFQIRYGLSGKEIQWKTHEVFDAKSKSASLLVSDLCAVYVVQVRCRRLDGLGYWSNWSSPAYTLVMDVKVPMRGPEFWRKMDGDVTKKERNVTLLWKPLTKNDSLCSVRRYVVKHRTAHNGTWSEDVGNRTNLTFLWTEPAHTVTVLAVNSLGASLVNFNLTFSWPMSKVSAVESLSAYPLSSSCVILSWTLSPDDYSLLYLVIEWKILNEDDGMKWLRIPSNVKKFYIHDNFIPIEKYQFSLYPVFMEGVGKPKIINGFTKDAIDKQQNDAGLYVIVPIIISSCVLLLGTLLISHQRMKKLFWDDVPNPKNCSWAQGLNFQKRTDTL

T2: OB-Rb (Mus musculus, UniProt P48356)
T2 construct: full-length leptin receptor (OB-Rb), the receptor isoform predominantly expressed in the hypothalamus; expressed in transfected cells; host or cells: GT1-7
T2 sequence (P48356 22-1162): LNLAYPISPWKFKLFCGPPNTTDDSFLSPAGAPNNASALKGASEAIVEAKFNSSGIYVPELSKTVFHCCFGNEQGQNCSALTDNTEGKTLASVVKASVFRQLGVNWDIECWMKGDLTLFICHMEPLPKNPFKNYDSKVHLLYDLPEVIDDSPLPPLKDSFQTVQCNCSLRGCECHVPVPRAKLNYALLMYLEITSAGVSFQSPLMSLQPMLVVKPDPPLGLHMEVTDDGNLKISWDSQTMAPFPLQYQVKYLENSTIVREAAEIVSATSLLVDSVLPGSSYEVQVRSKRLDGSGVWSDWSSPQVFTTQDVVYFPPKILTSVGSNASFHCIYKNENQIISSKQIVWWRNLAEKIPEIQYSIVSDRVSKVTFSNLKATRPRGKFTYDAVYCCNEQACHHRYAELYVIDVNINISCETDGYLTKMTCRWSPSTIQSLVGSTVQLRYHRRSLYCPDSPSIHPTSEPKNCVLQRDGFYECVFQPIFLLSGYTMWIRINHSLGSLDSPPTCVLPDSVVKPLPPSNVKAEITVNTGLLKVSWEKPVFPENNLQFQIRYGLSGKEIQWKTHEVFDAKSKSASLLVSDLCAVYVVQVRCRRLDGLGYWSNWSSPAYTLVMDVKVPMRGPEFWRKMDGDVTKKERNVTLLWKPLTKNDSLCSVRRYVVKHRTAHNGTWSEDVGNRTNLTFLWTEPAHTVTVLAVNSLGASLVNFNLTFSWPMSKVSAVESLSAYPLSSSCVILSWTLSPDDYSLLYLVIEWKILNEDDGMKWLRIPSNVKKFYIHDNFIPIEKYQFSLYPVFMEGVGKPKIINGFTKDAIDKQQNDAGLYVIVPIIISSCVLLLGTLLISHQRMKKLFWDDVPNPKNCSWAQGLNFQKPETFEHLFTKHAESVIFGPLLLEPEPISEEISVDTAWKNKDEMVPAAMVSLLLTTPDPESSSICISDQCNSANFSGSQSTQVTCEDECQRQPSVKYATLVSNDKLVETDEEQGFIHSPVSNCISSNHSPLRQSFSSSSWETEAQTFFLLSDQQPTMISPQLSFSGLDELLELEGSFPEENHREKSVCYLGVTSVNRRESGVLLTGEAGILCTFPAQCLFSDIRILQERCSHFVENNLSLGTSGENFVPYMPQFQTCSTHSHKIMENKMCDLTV

B1: mouse leptin: recombinant mouse leptin used as positive control in binding and SEAP assays (protein, listed as Mus musculus)
chain: MCWRPLCRFLWLWSYLSYVQAVPIQKVQDDTKTLIKTIVTRINDISHTQSVSAKQRVTGLDFIPGLHPILSLSKMDQTLAVYQQVLTSLPSQNVLQIANDLENLRDLLHLLAFSKSCSLPQTSGLQKPESLDGVLEASLYSTEVVALSRLQGSLQDILQQLDVSPEC

Key:
[1] = 28-day ip study of body weight and food intake in female C57BL/6J ob/ob mice; assay type: in vivo, mouse; conditions: 1 mg per day ip, 28 days
Source text: In order to examine this possibility, six overlapping peptide amides, which corresponded to amino acid residues 106 to 167 of mouse leptin, were synthesized and their effects on body weight and food intake in female C57BL/6J ob/ob mice were subsequently assessed.

[2] = Epitope mapping: body weight and food intake in female C57BL/6J ob/ob mice, 7 daily ip injections; assay type: in vivo, mouse; conditions: for Reduction of food intake / Weight loss: 1 mg daily; for Reduction of food intake / Cumulative food intake / Percent heavier (+) or lighter (−) than initial weight / Weight gain (+) or loss (−) / Food intake vs vehicle: 7 days; for Weight loss: after 7 days; for Cumulative food intake / Percent heavier (+) or lighter (−) than initial weight / Weight gain (+) or loss (−): 1 mg/day ip
Protocol: Animal procedures. Feeding and weighing schedules, as well as peptide administration protocols, are as described in EXAMPLE 8, supra.
Statistical analysis. Changes in body weight and differences in food intake between peptide-treated and vehicle-injected control mice were analyzed by analysis of variance (ANOVA) and considered significant when P<0.05.
Female ob/ob mice (n=6 per group) were given a single ip injection of 0.2 ml of vehicle (PBS, pH 7.2) or leptin-related synthetic peptide amide in 0.2 ml PBS for 7 consecutive days. Daily changes in body weight compared to pretreatment weights in both vehicle-injected control and peptide-treated mice are shown in FIG. 4. […] There was no evidence of weight loss in response to peptide treatment.

[3] = Short-term (7-day) toxicity study in female C57BLK/6-m wild type mice; conditions: 1 mg/day ip, 7 days
Protocol: Methods: OB3, [D-Leu-4]-OB3, hOB3 or vehicle was administered intraperitoneally once daily (1 mg/day, 7 days) to groups (n=6 mice per group) of C57BLK/6-m wild type mice of the same age as their obese (ob/ob or db/db) counterparts. The effects of the peptides on body weight gain, food and water intake, glucose homeostasis, serum insulin levels, and ability to thermoregulate were examined.

[4] = 12-day ip study of body weight gain and food intake in female C57BL/6J ob/ob mice; assay type: in vivo, mouse; conditions: 1 mg/day ip, 12 days
Protocol: The graphs show changes in body weight (expressed as percent of initial weight) and food intake (expressed as mg/gm body weight/mouse) for mice given vehicle or synthetic leptin-related peptide OB3 (1 mg/day, ip, 12 days).
Mice were injected with leptin-related synthetic peptide (1 mg/g body weight, ip) or vehicle daily for 12 consecutive days. Each bar represents mean±SEM food consumption per mouse (n=6 mice per group) after 3, 6, 9 and 12 days of treatment.
Each value represents mean±SEM change in body weight for a group of 6 mice.
Mice were injected with leptin-related synthetic peptide (1 mg/g body weight, ip) or vehicle for 12 consecutive days. Each bar and vertical line represents mean±food consumption per mouse (n=6 mice per group) after 3, 6, 9 and 12 days of treatment.

[5] = target: T1, OB-Ra; assay: Inhibition of AP-OB fusion protein binding by COS-7 cells transfected with OB receptor; conditions: 30 nM unlabelled mouse leptin
Source text: (§1) Initial experiments to determine the mechanism of action of LEP(116–130) utilized two highly sensitive in vitro bioassays routinely used to assess leptin binding and receptor activation (see e.g., White, et al., 1997. Proc. Natl. Acad. Sci. U.S.A. 94: 10657–10662). An alkaline phosphatase (“AP”)-leptin (“OB”) fusion protein (“AP-OB”) was used to measure inhibition of leptin binding in the absence or presence of recombinant mouse leptin (positive control) or peptide, by COS-7 cells transfected with the long (signaling) form of the mouse OB receptor (“OB-RL”). Signal transduction assays were done in GT1–7 cells cotransfected with AP reporter and OB-RL constructs. Secreted alkaline phosphatase (“SEAP”) activity in response to stimulation with mouse leptin or peptide was measured by chemiluminescence.
Two days after transfection, COS-7 cells were incubated with 1 nm human AP-OB fusion protein and bound AP activity was determined by chemiluminescence using the Great EscApe alkaline phosphatase detection kit as described by the manufacturer (CLON-TECH).
COS-7 cells were transfected with expression vector for OB-Ra. Two days after transfection, the cells were incubated with 1 nM human AB-OB fusion protein in the absence or presence of 30 nM mouse leptin, 300 μM LEP(116–130) or LEP(146–160). Bound AP activity was determined as has been described. See., e.g., Kamohara et al., 1997 Nature 389: 374–377.

[6] = target: T2, OB-Rb; assay: SEAP reporter gene signal transduction assay in GT1–7 cells cotransfected with HRRE-SEAP and OB-Rb; assay type: cell-based; conditions: 6 nM mouse leptin, 24 h
Source text: as §1
Two days after transfection, the cells were stimulated with mouse leptin or leptin-related synthetic peptides for 24 hours. Growth media were harvested and SEAP activity was determined by chemiluminescence as described for AP-OB binding studies.
COS-7 and GT1–7 cells were cultured in DMEM supplemented with 10% fetal bovine serum, and transfected by the lipofectamine method. […] Supernatants were collected and SEAP reporter activities were measured by chemiluminescence using the GreatEscApe alkaline phosphatase detection kit as described by the manufacturer (CLONTECH). […]

| Molecule | Weight gain and food intake vs vehicle [1] | Cumulative food intake [2] | Percent heavier (+) or lighter (−) than initial weight [2] | Weight gain (+) or loss (−) [2] | Toxic effects [3] | further results |
| --- | --- | --- | --- | --- | --- | --- |
| D L L H L L A F S K S C S L P (DLLHLLAFSKSCSLP) [LEP(106–120)] | significantly (P<0.01) restricted weight gain and food intake | 34.5 ± 1.1^b gm/mouse | −12.0% | −6.1^a g | – | Reduction of food intake [2]: 14.8%; Weight loss [2]: 12.0%; Food intake vs vehicle [2]: significantly (P=0.01) less than vehicle-injected control mice |
| Q K P E S L D G V L E A S L Y (QKPESLDGVLEASLY; not fully specified (N-terminus)) [LEP(126–140)] | significantly (P<0.01) restricted weight gain and food intake | 34.7 ± 1.3^b gm/mouse | −10.2% | −6.0^a g | – | Reduction of food intake [2]: 14.3%; Weight loss [2]: 10.2%; Food intake vs vehicle [2]: significantly (P=0.01) less than vehicle-injected control mice |
| D I L Q Q L D V S P E C (DILQQLDVSPEC; not fully specified (N-terminus)) [LEP(156–167)] | continued to consume food and gain weight at a rate comparable to vehicle-injected control mice | 40.3 ± 0.6 gm/mouse | +22.6% | +5.7 g | – | – |
| CC(C)C[C@@H](NC(=O)[C@H](CO)NC(=O)[C@H](CS)NC(=O)[C@@H](N)CO)C(=O)N1CCC[C@H]1C(=O)N[C@@H](CCC(N)=O)C(=O)N[C@H](C(N)=O)[C@@H](C)O [[D-Leu-4]-OB3, Ser-Cys-Ser-[D-Leu]-Pro-Gln-Thr] (H-SCS[dL]PQT-NH2) | – | – | – | – | no apparent toxic effects | – |
| E A S L Y S T E V V A L S R L (EASLYSTEVVALSRL; not fully specified (N-terminus)) [LEP(136–150)] | continued to consume food and gain weight at a rate comparable to vehicle-injected control mice | 38.7 ± 1.6 gm/mouse | +25.6% | +5.4 g | – | – |
| T K T L I K T I V T R I N D I (TKTLIKTIVTRINDI) [LEP(31–45)] | – | 39.5 ± 0.6 gm/mouse | +26.6% | +6.6 g | – | Body weight gain and food intake vs vehicle [4]: not significantly (i.e., P>0.05) different |
| SCSLPQT-NH2 [OB3, Ser-Cys-Ser-Leu-Pro-Gln-Thr] | – | – | – | – | no apparent toxic effects | – |
| SCHLPWA-NH2 [hOB3, S C H L P W A] | – | – | – | – | no apparent toxic effects | – |
| B1 | – | – | – | – | – | Competition of bound AP-OB [5]: efficiently competed; Increase in SEAP activity [6]: 11 fold |
